Laboratory results as given in patent US12071415B2, “Carbon monoxide prodrugs for the treatment of medical disorders” (Georgia State University Research Foundation, Inc., priority 2018, dated 2024).
Blank lines part the entries; values can stand above or below the compound they belong to.

Legend:
[1] = pKa of the conjugate acid of the leaving group; no measurement described; cited from earlier work
[2] = NMR CO release experiments for formyl compounds; assay type: physicochemical; details: deuterated PBS or 20% DMSO-d6 in deuterated PBS; determined indirectly from ratio of formic acid formed
Protocol: Compounds 1-4 were tested for their CO release by NMR. Each compound was placed in deuterated PBS or 20% DMSO-d6 in deuterated PBS. CO release yield was indirectly determined by calculating the ratio of formic acid formed as a by-product of the competing hydrolysis reaction.

[3] = tested on: deoxy-myoglobin; assay: Two-compartment CO-myoglobin (Mb-CO) assay; assay type: physicochemical; details: DMSO/PBS, 37° C., 25 minutes
[4] = COP-1 fluorescent probe evaluation of CO release; assay type: physicochemical
Protocol: COP-1, a CO probe that is commonly employed in the literature to detect CO was used to evaluate the ability of different oxalyl-based compounds to release CO under aqueous solution at room temperature. Chloride was replaced with various leaving groups having different pKa values to survey the effect of pKa on CO release.
To a solution of the CO probe COP-1 (0.5 μM) in 3% DMSO in PBS, a solution of 1,2-bis(1,1-dioxido-3-oxobenzo[d]isothiazol-2(3H)-yl)ethane-1,2-dione in DMSO was added to form a 100 μM final solution concentration. The resulting mixture was incubated at 37° C., and the fluorescence emission intensity was recorded at different time points from […] with an excitation wavelength of 475 nm.

[5] = tested on: LPS induced TNF-α production in RAW264.7 cells; assay: Anti-inflammatory assay: TNF-α ELISA in LPS-stimulated RAW264.7 cell culture; assay type: cell-based; details: total 5 hour pretreatment (Compound 5 medium changed every 1 hour 5 times; Compound 7 single addition)
Protocol: The effect of the compounds of the present invention on CO-associated anti-inflammation activity was studied. Pro-inflammatory cytokine TNF-α in RAW264.7 cell culture upon stimulation by lipid polysaccharide (LPS) from E. coli was tested with ELSA assay. […] Due to the fast release kinetics of Compound 5, a repeated dosage protocol was used. Indicated concentration of Compound 5 was added to the culture medium right before addition to the cell and the fresh-made drug loaded culture medium was changed every 1 hour 5 times. Compound 7 has a longer half-life and therefore a single addition of the drug can fulfill the anti-inflammation effect. A Total 5 hour pretreatment was used throughout the experiments and the reported CO prodrug shown below (Ji, X., et al. Angew Chem Int Ed Engl 2016, 55 (51), 15846-15851) was used as the positive control: […]

[6] = LC-MS determination of oxalic acid (CO vs non-CO producing pathways); assay type: physicochemical; details: from a 200-μM sample
Protocol: LC-MS Studies: CO Production Vs Non-CO Producing Pathways The LCMS analysis was performed on an Agilent 1200 HPLC and 3200 API triple quadrupole mass spectrometer with electrospray ionization source in a negative mode. Selected ion mode was used for the detection of ions at m/z 182 for saccharin and m/z 89 for oxalic acid. A 5 uL of sample solution (compound 5) was directly delivered to the mass spectrometer ionization source with an Agilent autosampler and HPLC by mixing with 1% ACN in water mobile phase at 200 uL/min flow rate. No column was used. Three minutes were recorded and the peak area was integrated and the peak are ratio of PA (Oxalic acid)/PA(Saccharin) vs Concentration ratio (C(Saccharine)/C(Oxalic acid) was plotted as standard curve. The linear regression equation was generated for the calculation of the ratio of unknowns.

[7] = HPLC kinetics of decomposition; assay type: physicochemical; details: 40% acetonitrile in PBS; 60% PBS (40% acetonitrile), 37° C.
Protocol: Compound 5 was tested for its rate of decomposition under physiological conditions. The followed samples were injected into the HPLC instrument i) saccharin (200 μM) dissolved in 40% acetonitrile in PBS; and b) incubated solution of the CO-releasing molecule Compound 5 dissolved in 40% acetonitrile in PBS at 37° C. at different time points. A 200 μL aliquot of incubated sample was placed inside a 0.5 mL vial followed by dilution with 200 μL of acetonitrile. The study was performed using the Shimadzu Prominence UFLC with a reversed-phase analytical column (Waters C18 3.5 μM, 4.6×100 mm) at 25° C. The flow rate was set at 1 mL/min. Gradient elution using acetonitrile and deionized water with 0.05% TFA was used to elute out the components of the sample. Elution conditions: 0-7 min 50% to 70% acetonitrile; injection volume 10 μL; detection wavelength of 254 and 280 nm. Experiments were done in triplicate.

[8] = Saturation adsorption assay on activated charcoal; assay type: physicochemical; details: in 10 mg activated charcoal, ACN, 25° C.
Protocol: A saturation adsorption assay was used to determine the adsorption capacity of the Compound 5 on activated charcoal. Compound 5 was dissolved in anhydrous ACN to form calibration samples with a concentration range from 0.019 to 0.3 mg/ml. The absorbance at 280 nm was measured with a UV-Vis spectrometer and plotted against the concentration to give the calibration curve (FIG. 21).
At room temperature (25° C.), 1-6 mg Compound 5 was mixed with 10 mg of activated charcoal and then 0.5 ml ACN was added. The mixture was shaken for 1 h followed by centrifuging at 12000×g for 5 min and the supernatant was diluted by 50 folds with ACN and measured with UV/Vis spectrometer at 280 nm to get the Compound 5 concentration in the supernatant. Adsorbed mass of Compound 5 was calculated by Formula I: Adsorbed mass=(Initial mass)−0.5*(supernatant concentration) (Formula I) Adsorbed mass=Y0+(Plateau-Y0)*(1−e^kX) (Formula II)

[9] = tested on: HeLa cells; assay: CCK-8 cytotoxicity assay; assay type: cell-based; details: 0-100 μM, 1% DMSO in DMEM, 24 hours
Protocol: For the CCK-8 assay, HeLa cells were cultured in DMEM (Dulbecco's Modified Eagle's Medium) supplements with 10% fetal bovine serum (MidSci; SO1520HI) and 1% penicillin-streptomycin (Sigma-Aldrich; P4333) at 37° C. with 5% C02. Fresh medium was replenished every other day. The cells were treated with the compounds (0-100 μM) using 1% DMSO in DMEM for 24 hours.

[10] = Quantitative CO analysis by GC with thermal conductivity detector; assay type: physicochemical; details: 37° C.; for CO release yield: 4 to 1 acetonitrile: water, 1 h (FIG. 10); for CO yield, effect of pH: pH 1, pH 3 and pH 7.4 buffers in ACN:H2O (4:1), 1 hour (FIG. 11, 12)
Protocol: An Agilent […] GC System equipped with a thermal conductivity detector was used to detect and quantify CO release yield of the CO prodrugs. Using a gas tight syringe, specific volumes of the headspace of 20-mL headspace vials were sampled and transferred to the injector port maintained at 125° C. Helium was used as the carrier gas with a flow rate of 30 mL/min. Gaseous components of the headspace were separated by passing through a packed column with 60/80 Carboxen-1000 matrix support, […] (4.6 m)×1⁄8 in.×2.1 mm (Supelco). The column was heated 35° C. for 5 min then 225° C. at 20° C./min while the detector was held at 125° C.

[11] = RP-HPLC stability study (solid and acetonitrile solution); assay type: physicochemical; details: exposed to ambient light and temperature
From the text: These prodrugs are also stable as a solution of acetonitrile stored at room temperature for at least seven days.

[12] = CO release profile of the activated charcoal formulation (GC headspace); assay type: physicochemical; details: 100 mg method A formulation, 3 mL PBS, 37° C.
Protocol: Activated charcoal comprising Compound 5 (100 mg) that was formulated by method A was put into a GC-headspace vial. PBS (3 mL) preheated to 37° C. was added and the vial was sealed and incubated at 37° C. At different time points, 250 μL of the headspace gas was withdrawn and injected to a gas chromatograph (Agilent 7820) equipped with a RESTEK packed molecular sieve column and a TCD detector. The CO release kinetic and yield were plotted (FIG. 23) based on the CO peak area and calibration curve.

Compound: O=C(Oc1c(Cl)cc(Cl)cc1Cl)C(=O)Oc1c(Cl)cc(Cl)cc1Cl
pKa [1]: 6.23

Compound: O=C(C(=O)N1C(=O)c2ccccc2C1=O)N1C(=O)c2ccccc2C1=O
pKa [1]: 8.3

Compound: O=C(C(=O)n1ccnc1)n1ccnc1
pKa [1]: 14.5

Compound: O=CN1C(=O)c2ccccc2S1(=O)=O [Compound 1, 3-Oxobenzo[d]isothiazole-2(3H)-carbaldehyde 1,1-dioxide]
CO Release Yield (%) [2]: 20%

Compound: Cc1nn(C=O)c(=S)s1 [Compound 2, 5-Methyl-2-thioxo-1,3,4-thiadiazole-3(2H)-carbaldehyde]
formation of CO-myoglobin (UV-Vis spectral signature) [3]: showed the characteristic spectral signature for the formation of CO-myoglobin | CO Release Yield (%) [2]: 33% | increase in fluorescence with the COP-1 probe ([4]; after 10 minutes of incubation (FIG. 4)): 2.3 fold

Compound: O=Cn1ccccc1=O [Compound 3, 2-Oxopyridine-1(2H)-carbaldehyde]
CO Release Yield (%) [2]: 20%

Compound: O=C(C(=O)N1C(=O)c2ccccc2S1(=O)=O)N1C(=O)c2ccccc2S1(=O)=O [drawing 150]
pKa [1]: 1.6

Further lines, with some results ahead:

CO Release Yield (%) [2]: 34%
Compound: C[N+](C)=c1ccn(C=O)cc1.[Br-] [Compound 4, N-(1-Formylpyridin-4(1H)-ylidene)-N-methylmethanaminium Bromide]

CO production estimated from oxalic acid [6]: about 75% | oxalic acid produced [6]: 47 µM | half-life [7]: 1.28 ± 0.03 min | maximum adsorption amount on activated charcoal (plateau) [8]: 1.73 mg | increase in fluorescence intensity with the COP-1 probe ([4]; after 3 h (FIG. 5), 100 μM compound, 0.5 μM COP-1, 3% DMSO in PBS, 37° C.): 4 fold | CO release yield [10]: 76%±6 | CO yield, effect of pH [10]: 60% to 30% | stable as a solid [11]: at least 24 days | total CO release yield [12]: 81%
Compound: O=C(C(=O)N1C(=O)c2ccccc2S1(=O)=O)N1C(=O)c2ccccc2S1(=O)=O [Compound 5, 1,2-Bis(1,1-dioxido-3-oxobenzo[d]isothiazol-2(3H)-yl)ethane-1,2-dione]
formation of CO-myoglobin (UV-Vis spectral signature) [3]: showed the characteristic spectral signature for the formation of CO-myoglobin | LPS induced TNF-α production [5]: inhibit LPS induced TNF-α production in a dose-dependent manner | toxicity to HeLa cells (cell survival) [9]: no toxicity to HeLa cells up to a 100 μM concentration

half-life [7]: 9.5 ± 0.1 min | CO release yield [10]: 92%±3 | CO yield, effect of pH [10]: around 90%
Compound: CC1=CC(=O)N(C(=O)C(=O)N2C(=O)C=C(C)OS2(=O)=O)S(=O)(=O)O1 [Compound 7, 1,2-Bis(6-methyl-2,2-dioxido-4-oxo-1,2,3-oxathiazin-3(4H)-yl)ethane-1,2-dione]
formation of CO-myoglobin (UV-Vis spectral signature) [3]: showed the characteristic spectral signature for the formation of CO-myoglobin | LPS induced TNF-α production [5]: inhibit LPS induced TNF-α production in a dose-dependent manner

CO release yield [10]: No CO nor CO2 were detected | CO2 yield ([10]; ACN:H2O (4:1), 1 hour (FIG. 10)): No CO nor CO2 were detected
Compound: CC(C)(C)OC(=O)C(=O)N1C(=O)c2ccccc2S1(=O)=O [Compound 8, tert-Butyl 2-(1,1-Dioxido-3-oxobenzo[d]isothiazol-2(3H)-yl)-2-oxoacetate]

CO release yield [10]: no CO was detected
Compound: CS(=O)(=O)N(C(=O)C(=O)N(C(=O)c1ccccc1)S(C)(=O)=O)C(=O)c1ccccc1 [Compound 9, N^1,N^2-Dibenzoyl-N^1,N^2-bis(methylsulfonyl)oxalamide]
